Measured values taken from PubChem BioAssay AID1963825 (Molecular Pharmacology Branch, DTP, NCI, 2024).

Assay: Anticancer human tumor 997537-175-T-J1-PDC patient-derived colon adenocarcinoma cell line growth inhibition [POLQ]
Conditions: 997537-175-T-J1-PDC complex spheroid viability, combination with POLQ inhibitors; for IC50: curve of first compound; for viability, T/C: stronger effect = lower value; active = viability on the fitted dose curve at most 10% of control; inactive = the rest
Summary of the method: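 Complex spheroid viability model combining PDC tumour cells with endothelial (HUVEC) and MSC stromal cells. Novobiocin, ART-558 or RP6685 were tested singly and in combination with standard and investigational anticancer drugs. Each was titrated in half-log steps from near clinical Cmax, or from 10 microM where Cmax was unknown.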

[1] = second compound 0.0316 µM, first compound 0.0316 µM
[2] = second compound 0.0316 µM, first compound 0.1 µM
[3] = second compound 0.0316 µM, first compound 0.316 µM
[4] = second compound 0.0316 µM, first compound 1 µM
[5] = second compound 0.0316 µM, first compound 3.16 µM
[6] = second compound 0.0316 µM, first compound 10 µM
[7] = second compound 0.1 µM, first compound 0.0316 µM
[8] = second compound 0.1 µM, first compound 0.1 µM
[9] = second compound 0.1 µM, first compound 0.316 µM
[10] = second compound 0.1 µM, first compound 1 µM
[11] = second compound 0.1 µM, first compound 3.16 µM
[12] = second compound 0.1 µM, first compound 10 µM
[13] = second compound 0.316 µM, first compound 0.0316 µM
[14] = second compound 0.316 µM, first compound 0.1 µM
[15] = second compound 0.316 µM, first compound 0.316 µM
[16] = second compound 0.316 µM, first compound 1 µM
[17] = second compound 0.316 µM, first compound 3.16 µM
[18] = second compound 0.316 µM, first compound 10 µM
[19] = second compound 1 µM, first compound 0.0316 µM
[20] = second compound 1 µM, first compound 0.1 µM
[21] = second compound 1 µM, first compound 0.316 µM
[22] = second compound 1 µM, first compound 1 µM
[23] = second compound 1 µM, first compound 3.16 µM
[24] = second compound 1 µM, first compound 10 µM
[25] = second compound 3.16 µM, first compound 0.0316 µM
[26] = second compound 3.16 µM, first compound 0.1 µM
[27] = second compound 3.16 µM, first compound 0.316 µM
[28] = second compound 3.16 µM, first compound 1 µM
[29] = second compound 3.16 µM, first compound 3.16 µM
[30] = second compound 3.16 µM, first compound 10 µM
[31] = second compound 10 µM, first compound 0.0316 µM
[32] = second compound 10 µM, first compound 0.1 µM
[33] = second compound 10 µM, first compound 0.316 µM
[34] = second compound 10 µM, first compound 1 µM
[35] = second compound 10 µM, first compound 3.16 µM
[36] = second compound 10 µM, first compound 10 µM
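Note: luminescence signal used as a surrogate for viable cells; spheroids exposed to drugs for seven days before readout.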

CC1COCCN1c1cc(C2(O)CC3CCC(C2)O3)c2cnn(-c3ccn[nH]3)c2n1 (stereo unspecified) + Nc1ccc(C#CCN(C(=O)Cc2ncc(C(F)(F)F)cc2C(F)(F)F)c2ccc(F)cc2)nn1
3.16 µM: IC50 (second compound 3.16 µM)
inactive: viability, T/C [1] 94.8% | viability, T/C [2] 83.7% | viability, T/C [3] 58.4% | viability, T/C [4] 56.8% | viability, T/C [5] 40.1% | viability, T/C [6] 53.3% | viability, T/C [7] 98.8% | viability, T/C [8] 73.5% | viability, T/C [9] 42.5% | viability, T/C [10] 72.8% | viability, T/C [11] 48% | viability, T/C [12] 64.5% | viability, T/C [13] 93.2% | viability, T/C [14] 80.8% | viability, T/C [15] 49.9% | viability, T/C [16] 46.3% | viability, T/C [17] 51.4% | viability, T/C [18] 75.1% | viability, T/C [19] 97.3% | viability, T/C [20] 69.4% | viability, T/C [21] 63.1% | viability, T/C [22] 47.6% | viability, T/C [23] 58.6% | viability, T/C [24] 44.7% | viability, T/C [25] 82.4% | viability, T/C [26] 79.1% | viability, T/C [27] 42% | viability, T/C [28] 56.4% | viability, T/C [29] 42.8% | viability, T/C [30] 74.7% | viability, T/C [31] 94% | viability, T/C [32] 79.9% | viability, T/C [33] 55.3% | viability, T/C [34] 52.2% | viability, T/C [35] 62% | viability, T/C [36] 65.2%
1.7 µM: IC50 (second compound 0.0316 µM)
6.2 µM: IC50 (second compound 1 µM)
> 10 µM: IC50 (second compound 0.1 µM) | IC50 (second compound 0.316 µM) | IC50 (second compound 10 µM)

CCc1cc2c(N3CCc4c(cc(Cn5ccnc5)cc4-c4cn(C)nc4C(F)(F)F)C3=O)cc(C)nc2c(OC)n1 + Nc1ccc(C#CCN(C(=O)Cc2ncc(C(F)(F)F)cc2C(F)(F)F)c2ccc(F)cc2)nn1
> 10 µM: IC50 (second compound 0.0316 µM) | IC50 (second compound 0.1 µM) | IC50 (second compound 0.316 µM) | IC50 (second compound 1 µM) | IC50 (second compound 3.16 µM) | IC50 (second compound 10 µM)
inactive: viability, T/C [1] 96% | viability, T/C [2] 98.5% | viability, T/C [3] 98.1% | viability, T/C [4] 86.8% | viability, T/C [5] 76% | viability, T/C [6] 67.4% | viability, T/C [7] 88.7% | viability, T/C [8] 97% | viability, T/C [9] 77.7% | viability, T/C [10] 79.6% | viability, T/C [11] 68.3% | viability, T/C [12] 74.9% | viability, T/C [13] 93.4% | viability, T/C [14] 87.3% | viability, T/C [15] 99.5% | viability, T/C [16] 96.5% | viability, T/C [17] 84% | viability, T/C [18] 77.5% | viability, T/C [19] 96.4% | viability, T/C [20] 103% | viability, T/C [21] 84% | viability, T/C [22] 80.9% | viability, T/C [23] 78.9% | viability, T/C [24] 51% | viability, T/C [25] 102% | viability, T/C [26] 103% | viability, T/C [27] 99.7% | viability, T/C [28] 89.7% | viability, T/C [29] 65.4% | viability, T/C [30] 73.7% | viability, T/C [31] 105% | viability, T/C [32] 104% | viability, T/C [33] 87.6% | viability, T/C [34] 96.8% | viability, T/C [35] 71.8% | viability, T/C [36] 76.7%

O=C(Nc1ccc(O)c(NS(=O)(=O)c2ccc(F)cc2)c1)c1ccc(-c2ccccc2)cc1 + Nc1ccc(C#CCN(C(=O)Cc2ncc(C(F)(F)F)cc2C(F)(F)F)c2ccc(F)cc2)nn1
inactive: viability, T/C [1] 106% | viability, T/C [2] 108% | viability, T/C [3] 106% | viability, T/C [4] 99.1% | viability, T/C [5] 91.3% | viability, T/C [6] 97.7% | viability, T/C [7] 109% | viability, T/C [8] 91.9% | viability, T/C [9] 96.8% | viability, T/C [10] 105% | viability, T/C [11] 119% | viability, T/C [12] 87.5% | viability, T/C [13] 104% | viability, T/C [14] 114% | viability, T/C [15] 106% | viability, T/C [16] 101% | viability, T/C [17] 107% | viability, T/C [18] 84.6% | viability, T/C [19] 105% | viability, T/C [20] 105% | viability, T/C [21] 95.2% | viability, T/C [22] 101% | viability, T/C [23] 102% | viability, T/C [24] 89.8% | viability, T/C [25] 98% | viability, T/C [26] 97.9% | viability, T/C [27] 114% | viability, T/C [28] 110% | viability, T/C [29] 102% | viability, T/C [30] 90.9% | viability, T/C [31] 105% | viability, T/C [32] 101% | viability, T/C [33] 113% | viability, T/C [34] 103% | viability, T/C [35] 97.4% | viability, T/C [36] 81%
> 10 µM: IC50 (second compound 0.0316 µM) | IC50 (second compound 0.1 µM) | IC50 (second compound 0.316 µM) | IC50 (second compound 1 µM) | IC50 (second compound 3.16 µM) | IC50 (second compound 10 µM)
